Results published in patent US20240108591A1, “OR2L13 AGONISTS TO TREAT CVD WITH DY[…] ACTIVATION” (The Cleveland Clinic Foundation, priority 2022, published 2024).

Key:
healthy platelets [1] = test: Platelet calcium transients (Fura-2 fluorescence); format: cell-based, human; settings: 300 μM, n=5
Source text: (§1) FIG. 5. A conserved olfactory receptor signal transduction pathway in healthy platelets. A. Proposed platelet OR2L13 signal transduction. Levo-carvone (L-Carvone) binds to OR2L13 on platelets to generate cAMP through adenylyl cyclase activation, and cAMP changes the cytosolic concentration of calcium (Ca 2+) directly and chloride conductance (C1^−) while inhibiting platelet reactivity through known, well-described mechanisms involving protein kinase (PKA). […] C. […] Data are mean±SEM (n=4, MQAE fluorescence). *P=0.0134 (−) carvone vs control by student's t-test. D. Carvone stimulation (300 μM) of healthy platelets promotes local brief calcium transients 20-80% above baseline is sustained compared with thrombin which attenuates over time (n=5 human platelets, Fura-2 fluorescence). MQAE=-[ethoxycarbonylmethyl]-6-methoxy-quinoliniumbromide. Arrowhead=drug addition.
(§2) ORs and downstream anoctamin proteins are generally expressed in afferent olfactory neurons (23). ORs are GPCRs positively linked to AC to increase cAMP (24), triggering […] as a downstream calcium-sensitive chloride channel (25). If this signal transduction pathway is conserved in platelets, OR2L13 activation should generate cAMP in platelets coincident with changes in platelet Cl^−- and Ca^2+ flux (schematic, FIG. 5A). […]

[2] = Circulating platelet number in treated mice; format: in vivo, mouse; settings: 100 mg/Kg/day i.p. for three days, FVB/tac mice
Protocol: To ascertain whether exogenous (−) carvone in mice impacted platelet reactivity and thrombosis in vivo, FVB/tac mice were administered (−) carvone at a dose of 100 mg/Kg/day for three days by i.p. injection. Platelets were then isolated from mice and thrombin-stimulated ex vivo. Thrombin-induced platelet degranulation ex vivo was inhibited in platelets from (−) carvone-treated mice (FIG. 7C). […] This effect is consistent with adequate absorption and distribution of (−) carvone to attenuate platelet activation and thrombosis in vivo.

human platelets = test: cAMP generation in human platelets; format: cell-based; settings: 300 μM, 5 minutes, n=7
Source text: as §1, §2

healthy platelets [3] = test: Platelet chloride efflux (MQAE fluorescence); format: cell-based, human; settings: 300 μM, n=4
Source text: as §1, §2

[4] = tested on: platelets from healthy humans; test: Light transmission aggregometry, ADP-induced platelet aggregation; format: cell-based, human; settings: 30 minutes preincubation, ADP 0.1 μM
Protocol: FIG. 6. […] A. Platelets were isolated from healthy humans and preincubated with (−) carvone or (+) carvone (300 μM) for 30 minutes. Platelets were stimulated with ADP (0.1 μM) and light transmission aggregometry assessed platelet activation. Representative tracings for each agonist are shown. B. Carvone (300 μM) or forskolin (10 μM) incubation individually or together for 30 minutes followed by platelet stimulation with ADP (0.1 μM). Light transmission aggregometry assessed platelet activation. Representative aggregometry tracings are shown. V=vehicle, C=(−)carvone, F=forskolin. Differences between groups by one-way ANOVA followed by Bonferroni correction *P<0.0001, **P=0.0003, ***P<0.0001 vs. vehicle (n=3). C. […] D. Platelets isolated from healthy humans and preincubated with (−) carvone (0-500 μM) for 30 minutes then stimulated with ADP (0.1 μM). Light transmission aggregometry assessed platelet activation. Representative tracings for each agonist are shown. E. Summary data for each concentration of (−) carvone as mean±SEM by ANOVA in the presence of ADP stimulation (0.1 μM). The downward red arrow is ADP in the presence of vehicle to which all data points were compared. *P<0.05 vs. vehicle, n=3 in each group by ANOVA, followed by Bonferroni correction. The broken blue line indicates the log IC50 concentration of (−) carvone. […]

healthy platelets [5] = test: Flow cone and plate exposure to S-flow or D-flow, surface p-selectin by FACS; format: cell-based, human; settings: 300 μM, 30 minute pre-treatment, 60 mins flow
Protocol: (§3) FIG. 7. Biomechanical platelet activation is inhibited by OR2L13 agonists. A. In vitro exposure of healthy platelets to steady laminar flow (S-flow) or disturbed flow (D-flow) for 60 mins after 30 minute pre-treatment with vehicle or (−) Carvone (300 μM). Platelet activation quantified by surface p-selectin expression as mean fluorescence intensity (MFI)±SEM, n=3 in each group by 2-way ANOVA. B. Calcein green-loaded healthy human blood flowing through a collagen-I coated microfluidics chamber at 40 dyn/cm^2 and imaged by confocal microscopy for adherent thrombus (green puncta) at three minutes. […] Differences between groups was assessed by the student's t-test, * P<0.0001 vs. vehicle. […]
(§4) Healthy human blood loaded with the fluorophore calcein green at room temperature (10 μM, pH 7.4 for 20 minutes), and incubated with odorant ligands for 30 minutes. […] D-flow shear cannot be accurately determined, though the same rotational speed was used with S-flow and D-flow always run alongside no flow (static) conditions for internal consistency. Following exposure to S-flow or D-flow, platelets were imaged by confocal microscopy, surface marker proteins were determined quantitatively by flow cytometry, and platelet proteins were assessed by Western blotting.
(§5) We next evaluated biomechanical platelet activation by S-flow and D-flow. […]

healthy human blood = test: Thrombus formation in collagen-I coated microfluidics chamber at high shear; format: cell-based; settings: 300 μM, 30 minutes, 40 dyn/cm^2, three minutes
Protocol: as §3, §4, §5

[6] = tested on: platelets from FVB/tac mice; test: Ex vivo thrombin-stimulated platelet activation after in vivo dosing; design: species or system mouse; settings: 100 mg/Kg/day i.p. for three days
Protocol: (§6) FIG. 7. Biomechanical platelet activation is inhibited by OR2L13 agonists. A. In vitro exposure of healthy platelets to steady laminar flow (S-flow) or disturbed flow (D-flow) for 60 mins after 30 minute pre-treatment with vehicle or (−) Carvone (300 μM). Platelet activation quantified by surface p-selectin expression as mean fluorescence intensity (MFI)±SEM, n=3 in each group by 2-way ANOVA. B. Calcein green-loaded healthy human blood flowing through a collagen-I coated microfluidics chamber at 40 dyn/cm^2 and imaged by confocal microscopy for adherent thrombus (green puncta) at three minutes. Data are represented as mean thrombus area of random fields±SEM, n=6-7 in each group following 30 minutes of vehicle (0.25% DMSO) or (−) carvone treatment (300 μM). Differences between groups was assessed by the student's t-test, * P<0.0001 vs. vehicle. C. WT Fvb/tac mice were given 100 mg/Kg/day (−) carvone IP for 3 days. Platelets were isolated and stimulated in the presence of thrombin. […] D. Time to hemostasis in mice treated with (−) carvone following surgical amputation of tail tip in seconds±SEM, n=6-9 in each group, *P=0.0046 vs. vehicle by Mann Whitney U.
(§7) To ascertain whether exogenous (−) carvone in mice impacted platelet reactivity and thrombosis in vivo, FVB/tac mice were administered (−) carvone at a dose of 100 mg/Kg/day for three days by i.p. injection. […]

FVB/tac mice [7] = test: Tail bleeding time (time to hemostasis after tail tip amputation); format: in vivo, mouse; settings: 100 mg/Kg/day i.p. for three days
Protocol: as §6, §7

MMP2 [8] = test: Aortic lysate MMP activity by zymography in AAA model; format: in vivo, mouse; settings: daily 100 mg/Kg i.p., aortic lysate at week 4 following AAA
Source text: We previously reported that platelet matrix metalloproteinase (MMP) activity is increased in myocardial infarction (7, 27). Given that patients with AAA show less aortic growth and rupture when taking aspirin and growth and rupture are linked to MMP activity (10), we hypothesized that circulating platelets in patients with AAA may synthesize and secrete MMPs. Platelet MMP9 activity was enhanced and the MMP9 Tissue Inhibitor of MMP9 (TIMP1) was reduced in AAA compared to healthy conditions (FIG. 9A). Platelet MMP9 content was unchanged in healthy compared with AAA platelets. Aortic tissue as well as luminal thrombus from patients with infrarenal AAA compared to non-aneurysmal cadaveric aorta had increased expression and activity of MMP9.

MMP2 [9] = test: Platelet lysate MMP2 activity by zymography in AAA model; settings: isolated platelets from treated wild-type mice, week 4 following AAA
FVB/tac mice [10] = test: Murine AAA model (topical elastase, BAPN, anti-TGFβ), aortic diameter by ultrasound
Protocol: To augment aneurysm growth and induce ILT as described (26), anti—TGFβ blocking antibody (250 μg/mouse) was injected i.p. three times weekly starting the day of surgery. Each mouse (20-30 g in weight) is given 1 mL subcutaneous physiologic saline before surgical incision to account for insensible volume losses with gut externalization. Surgical procedures were conducted on a surgical heating pad at 37 ° C. Mice were anesthetized with isoflurane anesthesia (3% by nosecone) using oxygen as the carrier. Buprenorphine (0.05 mg/Kg) is given 30 minutes prior to skin incision. The area of incision is cleaned with 70% ethanol and betadine three times, and then infiltrated gently with local anesthesia (bupivacaine 5 mg/Kg SQ immediately prior to incision). A midline abdominal incision is made through the skin. The rectus sheath was divided at the Linea Alba. The intestines are exteriorized with a Qtip to the left of mouse onto gauze soaked with saline above and below to prevent drying. Whatman paper 6 mm×9 mm slices were placed on top of aorta below the bifurcation of the renal arteries. […] Hyperalgesia was assessed immediately after the procedure, and then twice daily for 48 hrs, and maintenance dose buprenorphine (0.05 mg/Kg) was given 8 hrs post-surgery, and then maintained at this dose for 48 hrs post-surgery. […]

[11] = tested on: clinical population with AAA; settings: large clinical population (ref 10); cited from earlier work
patients with small AAA = settings: randomized clinical trial (ref 14); cited from earlier work

SMILES: C=C(C)[C@@H]1CC=C(C)C(=O)C1 (single isomer, unassigned) [(−) carvone]
- local brief calcium transients above baseline (healthy platelets [1]): 20-80%
- circulating platelet number [2]: without affecting the circulating platelet number

SMILES: C=C(C)C1CC=C(C)C(=O)C1 (single isomer, unassigned; (-)) [(−) carvone]
- cAMP generation in platelets (human platelets): generates cAMP
- chloride efflux (healthy platelets [3]): promotes chloride efflux
- ADP-induced platelet aggregation ([4]; 0-500 μM): blunted ADP-induced platelet aggregation dose-dependently
- anti-platelet effect, (−) versus (+) enantiomer ([4]; 300 μM): more potent anti-platelet effect
- S-flow / D-flow induced platelet activation (surface p-selectin) (healthy platelets [5]): attenuated only D-flow induced platelet activation
- thrombosis in whole blood (thrombus area) (healthy human blood): attenuated
- thrombin-induced platelet degranulation ex vivo [6]: inhibited
- tail bleeding times (FVB/tac mice [7]): prolonged
- MMP2 activity in the aorta (MMP2 [8]): decreased MMP2 activity in the aorta
- platelet MMP2 activity compared to control mice (MMP2 [9]): decreased
- AAA growth (aortic diameter by ultrasound) (FVB/tac mice [10]; 100 mg/Kg/day i.p. starting at day 7, fvb/tac mice): attenuated AAA growth

SMILES: CC(=O)Oc1ccccc1C(=O)O [aspirin, reference compound]
- AAA growth in patients [11]: limits AAA growth
- AAA growth (aortic diameter by ultrasound) (FVB/tac mice [10]; 30 mg/L in drinking water starting at day 7, fvb/tac mice): attenuated AAA growth similarly to aspirin

SMILES: CCCSc1nc(N[C@@H]2C[C@H]2c2ccc(F)c(F)c2)c2nnn([C@@H]3C[C@H](OCCO)[C@@H](O)[C@H]3O)c2n1 [ticagrelor]
- AAA growth in patients (patients with small AAA): did not alter AAA growth
